ChEMBL document CHEMBL6178017, “Intercepting the Downstream of the Estrogen Receptor Signaling Pathway: Discovery of a Potent and Efficient SRC-3 PROTAC Degrader for Overcoming Endocrine Resistance Breast Cancer” (J Med Chem, 2025)
Activity calls are given as the source filed them. The calls are words filed in the database; no cut-off is given here.

Tests used:
[1] = tested on: MCF7; assay: Induction of apoptosis in human MCF7 cells assessed as maximal increase in early apoptotic cells at 10 uM incubated for 48 hrs by AnnexinV-FITC/PI staining based flow cytometry; assay type: functional
[2] = biological target: T1, Protein cereblon/Nuclear receptor coactivator 3 (Homo sapiens, UniProt Q9Y6Q9+Q96SW2); assay: PROTAC activity at CRBN/SRC-3 in human MCF7 cells assessed as induction of SRC-3 degradation at 1 uM preincubated with SI-2 for 2 hrs followed by incubation with compound and measured after 36 hrs by immunoblot analysis; assay type: cell-based
T1 sequence (Q96SW2 whole entry partner): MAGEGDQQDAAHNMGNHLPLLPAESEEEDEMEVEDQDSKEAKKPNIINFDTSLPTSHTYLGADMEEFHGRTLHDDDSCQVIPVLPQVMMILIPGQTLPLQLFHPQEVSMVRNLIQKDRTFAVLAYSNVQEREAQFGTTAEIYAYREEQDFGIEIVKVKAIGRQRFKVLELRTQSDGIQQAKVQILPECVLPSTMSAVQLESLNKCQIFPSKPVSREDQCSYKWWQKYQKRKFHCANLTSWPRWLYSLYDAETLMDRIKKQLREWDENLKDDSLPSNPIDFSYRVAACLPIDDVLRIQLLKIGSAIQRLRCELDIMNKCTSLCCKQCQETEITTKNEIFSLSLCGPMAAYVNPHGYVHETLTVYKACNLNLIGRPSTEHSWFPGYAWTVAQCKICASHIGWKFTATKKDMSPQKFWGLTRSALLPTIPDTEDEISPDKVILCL
T1 sequence (Q9Y6Q9 2-1424 limits assumed): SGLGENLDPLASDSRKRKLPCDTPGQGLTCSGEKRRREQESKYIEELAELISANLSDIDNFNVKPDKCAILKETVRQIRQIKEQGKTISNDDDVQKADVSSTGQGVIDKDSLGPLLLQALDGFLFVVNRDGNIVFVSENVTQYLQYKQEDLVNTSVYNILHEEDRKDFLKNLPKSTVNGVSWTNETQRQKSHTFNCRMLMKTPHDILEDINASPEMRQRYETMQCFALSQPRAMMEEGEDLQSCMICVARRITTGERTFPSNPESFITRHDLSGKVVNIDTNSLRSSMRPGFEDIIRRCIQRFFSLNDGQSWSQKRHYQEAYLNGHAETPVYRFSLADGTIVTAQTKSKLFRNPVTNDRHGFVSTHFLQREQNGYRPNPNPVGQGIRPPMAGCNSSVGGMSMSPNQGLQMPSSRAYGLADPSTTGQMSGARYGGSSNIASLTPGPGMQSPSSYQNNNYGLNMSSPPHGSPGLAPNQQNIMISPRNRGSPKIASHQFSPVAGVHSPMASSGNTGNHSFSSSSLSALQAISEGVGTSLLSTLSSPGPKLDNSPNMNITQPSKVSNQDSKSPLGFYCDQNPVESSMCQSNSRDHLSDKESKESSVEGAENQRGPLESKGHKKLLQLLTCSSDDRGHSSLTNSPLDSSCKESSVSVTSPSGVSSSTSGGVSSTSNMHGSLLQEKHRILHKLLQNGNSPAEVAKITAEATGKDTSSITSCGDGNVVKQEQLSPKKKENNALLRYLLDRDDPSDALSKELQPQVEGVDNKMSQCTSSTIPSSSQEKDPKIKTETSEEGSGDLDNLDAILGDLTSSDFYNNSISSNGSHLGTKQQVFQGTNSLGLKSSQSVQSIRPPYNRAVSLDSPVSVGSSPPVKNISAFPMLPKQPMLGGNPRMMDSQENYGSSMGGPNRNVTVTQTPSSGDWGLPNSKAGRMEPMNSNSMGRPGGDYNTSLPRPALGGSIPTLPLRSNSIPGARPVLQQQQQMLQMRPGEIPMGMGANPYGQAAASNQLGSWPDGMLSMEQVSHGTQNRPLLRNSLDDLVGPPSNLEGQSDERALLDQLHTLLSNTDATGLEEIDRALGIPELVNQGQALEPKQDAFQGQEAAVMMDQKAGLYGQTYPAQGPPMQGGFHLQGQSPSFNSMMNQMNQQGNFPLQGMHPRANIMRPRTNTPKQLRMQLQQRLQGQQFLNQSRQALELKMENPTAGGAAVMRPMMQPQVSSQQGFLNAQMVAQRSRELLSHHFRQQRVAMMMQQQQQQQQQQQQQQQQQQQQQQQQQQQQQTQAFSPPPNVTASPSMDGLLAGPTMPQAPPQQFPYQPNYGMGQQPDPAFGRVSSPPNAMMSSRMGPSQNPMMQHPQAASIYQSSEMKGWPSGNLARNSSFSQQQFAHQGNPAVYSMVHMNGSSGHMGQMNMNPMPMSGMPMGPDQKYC

[3] = biological target: T1, Protein cereblon/Nuclear receptor coactivator 3; assay: PROTAC activity at CRBN/SRC-3 in human MCF7 cells harboring ER-alpha D538G mutant assessed as downregulation of ER-alpha level at 0.01 to 10 uM measured after 36 hrs by immunoblot analysis; assay type: cell-based; details: dose 0.01-10 µM
[4] = Induction of apoptosis in tamoxifen-resistant human LCC2 cells assessed as viable cells at 1 uM incubated for 48 hrs by AnnexinV-FITC/PI staining based flow cytometry (reference value: 88.09%); assay type: functional; details: Tamoxifen-resistant LCC2 cell, read-out: Activity
[5] = biological target: T1, Protein cereblon/Nuclear receptor coactivator 3; assay: PROTAC activity at CRBN/SRC-3 in tamoxifen-resistant human LCC2 cells assessed as induction of SRC-3 degradation at 0.1 to 10 uM incubated for 24 hrs by immunoblot analysis; assay type: cell-based; details: Tamoxifen-resistant LCC2 cell, dose 0.1-10 µM
[6] = Induction of apoptosis in tamoxifen-resistant human LCC2 cells assessed as early apoptotic cells at 5 uM incubated for 48 hrs by AnnexinV-FITC/PI staining based flow cytometry (reference value: 5.92%); assay type: functional, Tamoxifen-resistant LCC2 cell
[7] = biological target: Cereblon/Ikaros (Homo sapiens) (UniProt Q96SW2+Q13422); assay: PROTAC activity at CRBN/IKZF1 in tamoxifen-resistant human LCC2 cells assessed as degradation of IKZF1 at 10 uM measured after 36 hrs by diaPASEF-based quantitative proteomics analysis; details: Tamoxifen-resistant LCC2 cell
[8] = biological target: T1, Protein cereblon/Nuclear receptor coactivator 3; assay: PROTAC activity at CRBN/SRC-3 in human MCF-7 cells harboring Y537S mutant assessed as induction of SRC-3 degradation measured after 36 hrs by immunoblot analysis; assay type: cell-based; details: MCF7, dose 0.01-10 µM
[9] = biological target: Cereblon/Casein kinase I alpha (Homo sapiens) (UniProt P48729+Q96SW2); assay: PROTAC activity at CRBN/CK-1 alpha in tamoxifen-resistant human LCC2 cells assessed as degradation of CK-1alpha at 10 uM measured after 36 hrs by diaPASEF-based quantitative proteomics analysis; details: Tamoxifen-resistant LCC2 cell
Chain of Cereblon/Casein kinase I alpha (Homo sapiens) (P48729 2-337 limits assumed): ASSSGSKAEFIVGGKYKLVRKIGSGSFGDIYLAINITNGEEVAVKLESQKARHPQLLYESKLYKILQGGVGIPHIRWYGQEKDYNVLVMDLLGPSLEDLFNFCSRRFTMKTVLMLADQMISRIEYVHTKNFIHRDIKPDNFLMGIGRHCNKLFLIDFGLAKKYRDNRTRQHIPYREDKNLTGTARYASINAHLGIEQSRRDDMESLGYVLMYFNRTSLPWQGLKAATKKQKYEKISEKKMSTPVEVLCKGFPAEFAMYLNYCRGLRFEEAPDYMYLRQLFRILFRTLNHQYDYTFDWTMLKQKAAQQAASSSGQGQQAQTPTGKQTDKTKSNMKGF
Chain of Cereblon/Casein kinase I alpha (Homo sapiens) (Q96SW2 whole entry partner): as the sequence (Q96SW2 whole entry partner) above

[10] = Cmax in Balb/c mouse at 2 mg/kg, iv by LC-MS/MS analysis; assay type: ADME, organism-based; details: in vivo
[11] = biological target: T1, Protein cereblon/Nuclear receptor coactivator 3; assay: PROTAC activity at CRBN/SRC-3 in human MCF7 cells assessed as induction of AR degradation at 0.01 to 5 uM incubated for 24 hrs by immunoblot analysis; assay type: cell-based; details: dose 0.01-5 µM
[12] = Induction of cell cycle arrest in tamoxifen-resistant human LCC2 cells assessed as accumulation of cells at G1 phase at 20 uM incubated for 48 hrs by propidium iodide staining based flow cytometry (reference value: 78.71%); assay type: functional
[13] = Half life in human liver microsomes in presence of NADPH by LC-MS/MS analysis; assay type: ADME, Microsome
[14] = biological target: Protein cereblon/Zinc finger protein Helios (Homo sapiens) (UniProt Q96SW2+Q9UKS7); assay: PROTAC activity at CRBN/IKZF2 in tamoxifen-resistant human LCC2 cells assessed as degradation of IKZF2 at 10 uM measured after 36 hrs by diaPASEF-based quantitative proteomics analysis; details: Tamoxifen-resistant LCC2 cell
Chain of Protein cereblon/Zinc finger protein Helios (Homo sapiens) (Q96SW2 whole entry, looked up): as the sequence (Q96SW2 whole entry partner) above
Chain of Protein cereblon/Zinc finger protein Helios (Homo sapiens) (Q9UKS7 whole entry, looked up): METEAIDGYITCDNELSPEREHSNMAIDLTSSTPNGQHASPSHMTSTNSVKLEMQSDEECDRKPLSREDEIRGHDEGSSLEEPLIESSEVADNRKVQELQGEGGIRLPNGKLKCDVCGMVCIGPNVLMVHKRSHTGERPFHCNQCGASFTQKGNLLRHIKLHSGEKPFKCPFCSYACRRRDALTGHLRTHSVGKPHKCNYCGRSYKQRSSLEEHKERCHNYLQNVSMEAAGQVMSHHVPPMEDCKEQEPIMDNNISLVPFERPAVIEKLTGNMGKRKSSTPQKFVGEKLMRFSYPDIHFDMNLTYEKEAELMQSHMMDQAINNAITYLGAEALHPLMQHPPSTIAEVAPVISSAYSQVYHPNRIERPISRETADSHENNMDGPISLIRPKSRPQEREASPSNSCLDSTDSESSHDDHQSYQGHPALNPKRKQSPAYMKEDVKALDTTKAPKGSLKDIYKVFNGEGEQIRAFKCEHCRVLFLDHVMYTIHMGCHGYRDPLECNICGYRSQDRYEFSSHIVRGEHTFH

[15] = Induction of cell cycle arrest in tamoxifen-resistant human LCC2 cells assessed as accumulation of cells at G1 phase at 5 uM incubated for 48 hrs by propidium iodide staining based flow cytometry (reference value: 78.71%); assay type: functional
[16] = Induction of apoptosis in tamoxifen-resistant human LCC2 cells assessed as viable cells at 20 uM incubated for 48 hrs by AnnexinV-FITC/PI staining based flow cytometry (reference value: 88.09%); assay type: functional; details: Tamoxifen-resistant LCC2 cell, read-out: Activity
[17] = Induction of apoptosis in tamoxifen-resistant human LCC2 cells assessed as late apoptotic cells at 20 uM incubated for 48 hrs by AnnexinV-FITC/PI staining based flow cytometry (reference value: 4.83%); assay type: functional, Tamoxifen-resistant LCC2 cell
[18] = AUC (0 to infinity) in Balb/c mouse at 20 mg/kg, po by LC-MS/MS analysis; assay type: ADME, organism-based; details: in vivo
[19] = Antitumor activity against tamoxifen-resistant human LCC2 cells xenografted in Balb/c mouse assessed as inhibition of tumor growth at 5 uM/Kg, ip administered once every 2 days for 23 days; assay type: functional, Tamoxifen-resistant LCC2 cell; details: time 23 day, at 5 µmol/kg
[20] = tested on: Tamoxifen-resistant LCC2 cell; assay: Antitumor activity against tamoxifen-resistant human LCC2 cells xenografted in Balb/c mouse assessed as inhibition of tumor growth at 3 uM/Kg, ip administered once every 2 days for 23 days; assay type: functional, organism-based; details: time 23.0 day
[21] = Induction of cell cycle arrest in tamoxifen-resistant human LCC2 cells assessed as accumulation of cells at S phase at 10 uM incubated for 48 hrs by propidium iodide staining based flow cytometry (reference value: 9.72%); assay type: functional
[22] = Half life in Balb/c mouse at 20 mg/kg, po by LC-MS/MS analysis; assay type: ADME, organism-based; details: in vivo
[23] = tested on: MCF7; assay: Antiproliferative activity against human MCF7 cells assessed as inhibition of cell growth by CCK8 assay; assay type: functional, cell-based
[24] = Induction of cell cycle arrest in tamoxifen-resistant human LCC2 cells assessed as accumulation of cells at G2/M phase at 10 uM incubated for 48 hrs by propidium iodide staining based flow cytometry (reference value: 11.42%); assay type: functional
[25] = biological target: T1, Protein cereblon/Nuclear receptor coactivator 3; assay: PROTAC activity at CRBN/SRC-3 in tamoxifen-resistant human LCC2 cells assessed as induction of SRC-3 degradation at 1 uM preincubated with CRBN ligand-pomolidomide for 2 hrs followed by incubation with compound and measured after 36 hrs by immunoblot analysis; assay type: cell-based; details: Tamoxifen-resistant LCC2 cell
[26] = biological target: T1, Protein cereblon/Nuclear receptor coactivator 3; assay: PROTAC activity at CRBN/SRC-3 in tamoxifen-resistant human LCC2 cells assessed as degradation of ER-alpha by measuring downregulation of ER-alpha protein level at 10 uM measured after 36 hrs by diaPASEF-based quantitative proteomics analysis; details: Tamoxifen-resistant LCC2 cell
[27] = biological target: Protein cereblon/Eukaryotic peptide chain release factor GTP-binding subunit ERF3A (Homo sapiens) (UniProt Q96SW2+P15170); assay: PROTAC activity at CRBN/GSPT1-alpha in tamoxifen-resistant human LCC2 cells assessed as degradation of GSPT1 at 10 uM measured after 36 hrs by diaPASEF-based quantitative proteomics analysis; details: Tamoxifen-resistant LCC2 cell
Chain of Protein cereblon/Eukaryotic peptide chain release factor GTP-binding subunit ERF3A (Homo sapiens) (P15170 whole entry, looked up): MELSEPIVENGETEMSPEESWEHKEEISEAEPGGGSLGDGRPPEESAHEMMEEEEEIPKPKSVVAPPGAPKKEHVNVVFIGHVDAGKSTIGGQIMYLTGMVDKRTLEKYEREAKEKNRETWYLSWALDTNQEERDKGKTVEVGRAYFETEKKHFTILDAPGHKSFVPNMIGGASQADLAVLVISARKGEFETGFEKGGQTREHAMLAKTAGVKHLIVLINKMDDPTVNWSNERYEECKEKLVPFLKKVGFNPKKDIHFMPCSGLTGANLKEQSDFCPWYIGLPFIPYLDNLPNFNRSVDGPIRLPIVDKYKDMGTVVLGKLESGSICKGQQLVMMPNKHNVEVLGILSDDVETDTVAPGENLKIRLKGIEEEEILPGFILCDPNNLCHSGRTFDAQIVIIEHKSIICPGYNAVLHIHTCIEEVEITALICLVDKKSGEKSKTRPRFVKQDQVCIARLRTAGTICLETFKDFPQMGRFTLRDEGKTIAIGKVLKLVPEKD
Chain of Protein cereblon/Eukaryotic peptide chain release factor GTP-binding subunit ERF3A (Homo sapiens) (Q96SW2 whole entry, looked up): as the sequence (Q96SW2 whole entry partner) above

[28] = Induction of apoptosis in tamoxifen-resistant human LCC2 cells assessed as necrotic cells at 1 uM incubated for 48 hrs by AnnexinV-FITC/PI staining based flow cytometry (reference value: 1.16%); assay type: functional, Tamoxifen-resistant LCC2 cell
[29] = biological target: T1, Protein cereblon/Nuclear receptor coactivator 3; assay: PROTAC activity at CRBN/SRC-3 in human MCF7 cells harboring ER-alpha Y537S mutant assessed as downregulation of ER-alpha level at 0.01 to 10 uM measured after 36 hrs by immunoblot analysis; assay type: cell-based; details: dose 0.01-10 µM
[30] = AUC(0 to infinity) in Balb/c mouse at 2 mg/kg, iv by LC-MS/MS analysis; assay type: ADME, organism-based; details: in vivo
[31] = AUC (0 to t) in Balb/c mouse at 20 mg/kg, po by LC-MS/MS analysis; assay type: ADME, organism-based; details: in vivo

## C/C(=N\Nc1nc2ccccc2n1C1CN(C2CCN(c3cccc4c3C(=O)N(C3CCC(=O)NC3=O)C4=O)CC2)C1)c1ccccn1 (stereo unspecified)
[1]
  Activity: ~35%
[2]
  Activity: Active
[3]
  Activity: Active
[4]
  viability at 1 µM: 51.4%
[5]
  Activity: Active
[6]
  Activity: 10.14%
[7]
  Activity: inactive
[8]
  Activity: Dose-dependent-effect
[9]
  Activity: inactive
[10]
  Cmax: 148 ng/mL
[11]
  Activity: Active; Downregulation Effect Is Not As Pronounced As Er-Alpha
[12]
  Activity: 85.05%
[13]
  half-life: 8.46 min
[14]
  Activity: inactive
[15]
  Activity: 81.41%
[16]
  viability at 20 µM: 42.7%
[17]
  Activity: 14.47%
[18]
  AUC(0-inf): 58.4 ng·h/mL
[19]
  TGI: 54%
[20]
  Activity: Active
[21]
  Activity: 12.41%
[22]
  half-life: 269 min
[23]
  IC50: 10 nM
[24]
  Activity: 3.83%
[25]
  Activity: inactive
[26]
  Activity: Active
[27]
  Activity: inactive
[28]
  Activity: 9.63%
[29]
  Activity: Active
[30]
  AUC(0-inf): 367 ng·h/mL
[31]
  AUC(0-t): 47.1 ng·h/mL
